Data on 49 compounds can be found in patent publication US20110092476A1, “Bicycloheteroaryl compounds as P2X7 modulators and uses thereof” (Renovis, Inc., priority 2006, published 2011).

SMILES strings stand for the structures.

For one assay, the target named is T1, P2X7 receptor (Homo sapiens, UniProt Q99572).
T1 construct: host or cells: THP-1 cells differentiated with LPS and IFN-γ
T1 sequence (Q99572 1-595): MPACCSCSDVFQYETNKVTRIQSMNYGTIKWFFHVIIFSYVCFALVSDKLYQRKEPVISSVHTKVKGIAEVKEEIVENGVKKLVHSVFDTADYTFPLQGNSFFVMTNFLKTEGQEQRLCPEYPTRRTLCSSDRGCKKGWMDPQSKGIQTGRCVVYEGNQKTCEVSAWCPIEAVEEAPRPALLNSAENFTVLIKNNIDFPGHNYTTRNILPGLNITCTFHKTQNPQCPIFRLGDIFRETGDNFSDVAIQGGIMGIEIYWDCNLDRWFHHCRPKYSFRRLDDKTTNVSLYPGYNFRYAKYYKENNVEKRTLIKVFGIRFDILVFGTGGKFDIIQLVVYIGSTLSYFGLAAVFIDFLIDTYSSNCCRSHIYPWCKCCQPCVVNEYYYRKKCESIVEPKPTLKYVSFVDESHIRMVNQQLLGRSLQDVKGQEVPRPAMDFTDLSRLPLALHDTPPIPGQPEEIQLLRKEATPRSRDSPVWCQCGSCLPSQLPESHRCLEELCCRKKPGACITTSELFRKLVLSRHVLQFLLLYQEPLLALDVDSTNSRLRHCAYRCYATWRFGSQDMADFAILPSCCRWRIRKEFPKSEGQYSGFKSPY
As to the kind of experiment: IL-1β release assay in differentiated THP-1 cells stimulated with BzATP (Example 9). It counts as cell-based. As to conditions: 0.1 μM compound (symbols *); differentiated THP-1 cells, BzATP 250 uM; read-out: IL-1β % Inhib. @ 0.3 or 0.1 uM. How it is done: THP-1 cells (ATCC Cat #285-IF-100) are plated in 96 well plates at a concentration of 200,000 cells per well and allowed to differentiate in RPMI-1640 media (ATCC Cat #30-2001) containing 10% FBS, 100 IU/mL penicillin, 100 ug/mL streptomycin, 100 ng/mL LPS and 100 ng/mL IFN-γ for 16 hours. Following differentiation, the cells are treated for an additional 2 hours in RPMI-1640 media containing 100 IU/mL penicillin, 100 ug/mL streptomycin and fresh LPS at 100 ng/mL. The cells are then pretreated for 30 minutes with the compound of interest at the appropriate concentration in RPMI media containing 100 IU/mL penicillin, 100 ug/mL streptomycin. Following the pretreatment 2′,3′-O-(4-benzoylbenzoyl)-adenosine 5′-triphosphate (Sigma Aldrich Cat #B6396) is added to a final concentration of 250 uM and the cells are incubated for an additional 45 minutes. 30 uL of cell supernatant is then collected and IL-1β levels determined via ELISA (R&D systems Cat. #HSLB50) according to manufacturer's recommendations using the Tecan Safire plate reader. Background adjusted IL-1β levels of drug treated and non-treated cells are used to calculate the percent inhibition.
The compounds set forth in Table 1 were tested for activity in a cellular model as described herein. Specifically, cells were pretreated with differing amounts of the compound under test and released IL-1β determined as in Example 9, above. Measurements were made and IC50 values, presented in Table 2, below, were determined by fitting the data to a four parameter logistic equation using GraphPad Prism software (GraphPad Software, Inc). The equation may be expressed by the following formula:
Y=Bottom+(Top−Bottom)/(1+10̂((Log EC50−X)*HillSlope))
Where X is the logarithm of concentration, Y is the response and Y starts at Bottom and goes to Top with a sigmoid shape.
Turning to `Cc1ccccc1C(=O)Nc1cccc2c(=O)n(CC(C)O)ccc12` (stereo not drawn) [Compound 139], the inhibition at 0.1 µM is 26 to 50%.

Regarding `Cc1cc(C)c(CC(=O)Nc2cccc3c(=O)n(CC(C)O)ccc23)c(C)c1` (stereo not drawn) [Compound 129], the inhibition at 0.1 µM is 0 to 25%.

In the case of `CC(O)Cn1ccc2c(NC(=O)c3ccc(C(C)(C)C)cc3)cccc2c1=O` (stereo not drawn) [Compound 147], the inhibition at 0.1 µM was 0 to 25%.

In the case of `COc1ccc(CCC(=O)Nc2cccc3c(=O)n(CC(C)O)ccc23)cc1` (stereo not drawn) [Compound 150], the inhibition at 0.1 µM lay within 26 to 50%.

Regarding `Cc1ccc(C(=O)Nc2cccc3c(=O)n(CC4(O)CCCCC4)ccc23)c(C)c1` [Compound 86], the inhibition at 0.1 µM lay in the range of 0 to 25%.

For `CC(O)Cn1ccc2c(NC(=O)c3ccc4ccccc4c3)cccc2c1=O` (stereo not drawn) [Compound 152], the inhibition at 0.1 µM lay within 0 to 25%.

As to `COc1cc(OC)cc(C(=O)Nc2cccc3c(=O)n(CC4(O)CCCCC4)ccc23)c1` [Compound 19], the inhibition at 0.1 µM fell in the range of 0 to 25%.

With `COc1cc(OC)cc(C(=O)Nc2cccc3c(=O)n(CC(C)O)ccc23)c1` (stereo not drawn) [Compound 143], the inhibition at 0.1 µM is 0 to 25%.

On to `Cc1ccc(Cl)c(C(=O)Nc2cccc3c(=O)n(CC(C)O)ccc23)c1` (stereo not drawn) [Compound 178], for which the inhibition at 0.1 µM was 0 to 25%.

`Cc1cccc(C(=O)Nc2cccc3c(=O)n(C(C)CO)ccc23)c1C` (stereo not drawn) [Compound 98]: the inhibition at 0.1 µM was 0 to 25%.

Consider `COc1ccccc1CCC(=O)Nc1cccc2c(=O)n(CC3(O)CCCCC3)ccc12` [Compound 87], for which the inhibition at 0.1 µM lay within 0 to 25%.

With `Cc1ccc(Cl)cc1C(=O)Nc1cccc2c(=O)n(CC(C)O)ccc12` (stereo not drawn) [Compound 179], the inhibition at 0.1 µM was 0 to 25%.

As for `COc1ccc(C(=O)Nc2cccc3c(=O)n(CC(C)(C)O)ccc23)c(C)c1` [Compound 186], the inhibition at 0.1 µM lay within 0 to 25%.

As to `COc1cccc(CCC(=O)Nc2cccc3c(=O)n(CC(C)O)ccc23)c1` (stereo not drawn) [Compound 128], the inhibition at 0.1 µM is 0 to 25%.

On to `COc1ccc(CC(=O)Nc2cccc3c(=O)n(CC(C)O)ccc23)cc1` (stereo not drawn) [Compound 160], for which the inhibition at 0.1 µM lay within 0 to 25%.

`CC(O)Cn1ccc2c(NC(=O)c3ccc(-c4ccccc4)o3)cccc2c1=O` (stereo not drawn) [Compound 127]: the inhibition at 0.1 µM is 0 to 25%.

Consider `CC(O)Cn1ccc2c(NC(=O)CCc3ccc4c(c3)OCO4)cccc2c1=O` (stereo not drawn) [Compound 134], for which the inhibition at 0.1 µM fell in the range of 0 to 25%.

Consider `COc1cccc(CCC(=O)Nc2cccc3c(=O)n(C(C)CO)ccc23)c1` (stereo not drawn) [Compound 91], for which the inhibition at 0.1 µM lay in the range of 0 to 25%.

Regarding `CC(C)(O)Cn1ccc2c(NC(=O)CCc3ccccc3Cl)cccc2c1=O` [Compound 194], the inhibition at 0.1 µM fell in the range of 0 to 25%.

Regarding `Cc1ccccc1CC(=O)Nc1cccc2c(=O)n(CC(C)O)ccc12` (stereo not drawn) [Compound 157], the inhibition at 0.1 µM was 0 to 25%.

With `CC(C)(C)c1ccc(C(=O)Nc2cccc3c(=O)n(CC4(O)CCCCC4)ccc23)cc1` [Compound 23], the inhibition at 0.1 µM lay in the range of 0 to 25%.

On to `CC(C)(O)Cn1ccc2c(NC(=O)CCc3ccc4c(c3)OCO4)cccc2c1=O` [Compound 195], for which the inhibition at 0.1 µM was in the range of 0 to 25%.

Still in this assay, the particulars now being: 0.1 μM compound; differentiated THP-1 cells, BzATP 250 uM; "*" symbols; read-out: IL-1β % Inhib. @ 0.3 or 0.1 uM.
Turning to `Cc1cc(C)cc(CC(=O)Nc2cccc3c(=O)n(CC(C)(C)O)ccc23)c1` [Compound 226], the inhibition at 0.1 µM is 0 to 25%.

As to `COc1ccccc1CC(=O)Nc1cccc2c(=O)n(CC(C)(C)O)ccc12` [Compound 209], the inhibition at 0.1 µM is 0 to 25%.

Staying with this assay, now noted: 0.3 μM compound (symbols +); differentiated THP-1 cells, BzATP 250 uM; read-out: IL-1β % Inhib. @ 0.3 or 0.1 uM.
Take `O=C(Nc1cccc2c(=O)n(CCO)ccc12)C1(c2ccc(Cl)cc2)CCCC1` [Compound 79]: the inhibition at 0.3 µM is 0 to 25%.

For the compound `O=C(CCc1cc(C(F)(F)F)cc(C(F)(F)F)c1)Nc1cccc2c(=O)n(CCO)ccc12` [Compound 61], the inhibition at 0.3 µM lay within 0 to 25%.

Turning to `COc1ccc(CC(=O)Nc2cccc3c(=O)n(CC4(O)CCCCC4)ccc23)c(OC)c1` [Compound 47], the inhibition at 0.3 µM is 0 to 25%.

Regarding `O=C(Cc1ccc(C(F)(F)F)cc1)Nc1cccc2c1CCN(CCO)C2=O` [Compound 60], the inhibition at 0.3 µM was in the range of 26 to 50%.

Consider `O=C(Cc1cccc2ccccc12)Nc1cccc2c(=O)n(CC3(O)CCCCC3)ccc12` [Compound 26], for which the inhibition at 0.3 µM is 0 to 25%.

With `COc1ccccc1CC(=O)Nc1cccc2c(=O)n(CC3(O)CCCCC3)ccc12` [Compound 29], the inhibition at 0.3 µM was 26 to 50%.

`COc1ccc(CC(=O)Nc2cccc3c(=O)n(CC4(O)CCCCC4)ccc23)cc1` [Compound 33]: the inhibition at 0.3 µM lay within 0 to 25%.

For `CCOc1ccccc1CC(=O)Nc1cccc2c(=O)n(CC3(O)CCCCC3)ccc12` [Compound 50], the inhibition at 0.3 µM lay in the range of 0 to 25%.

In the case of `COc1ccc(OC)c(CC(=O)Nc2cccc3c(=O)n(CCO)ccc23)c1` [Compound 77], the inhibition at 0.3 µM was 0 to 25%.

With `O=C(CCc1ccc(Cl)cc1)Nc1cccc2c(=O)n(CC3(O)CCCCC3)ccc12` [Compound 49], the inhibition at 0.3 µM lay in the range of 0 to 25%.

The same assay, now with this note: 0.3 μM compound; differentiated THP-1 cells, BzATP 250 uM; "+" symbols; read-out: IL-1β % Inhib. @ 0.3 or 0.1 uM.
For `NCC(CCl)Cn1ccc2c(NC(=O)Cc3ccc(Cl)c(C(F)(F)F)c3)cccc2c1=O` (stereo not drawn) [Compound 258, N-[2-(3-Amino-2-chloromethyl-propyl)-1-oxo-1,2-dihydro-isoquinolin-5-yl]-2-(4-chloro-3-trifluoromethyl-phenyl)-acetamide], the inhibition at 0.3 µM was > 76%.

Consider `CC(C)[C@H](C(=O)NC1CC1)n1ccc2c(NC(=O)[C@@H](C)c3ccc(Cl)cc3)cccc2c1=O` [Compound 281, (R)-2-{5-[(S)-2-(4-Chloro-phenyl)-propionylamino]-1-oxo-1H-isoquinolin-2-yl}-N-cyclopropyl-3-methyl-butyramide], for which the inhibition at 0.3 µM is > 76%.

Regarding `CC(C)[C@H](C(=O)NC1CC1)n1ccc2c(NC(=O)[C@H](C)c3ccc(Cl)cc3)cccc2c1=O` [Compound 282], the inhibition at 0.3 µM was > 76%.

With `NC(=O)[C@H](CO)n1ccc2c(NC(=O)Cc3ccc(Cl)c(Cl)c3)cccc2c1=O` [Compound 253], the inhibition at 0.3 µM is 26 to 50%.

In the case of `Cc1ccc2c(=O)n(CCO)ccc2c1NC(=O)Cc1cccc(C(F)(F)F)c1F` [Compound 396], the inhibition at 0.3 µM is > 76%.

As for `C[C@H](C(N)=O)n1ccc2c(NC(=O)Cc3ccccc3Cl)cccc2c1=O` [Compound 260], the inhibition at 0.3 µM lay in the range of 0 to 25%.

`COc1ccc2c(=O)n([C@H](C)CO)ccc2c1NC(=O)Cc1ccc(C(F)(F)F)c(F)c1` [Compound 358]: the inhibition at 0.3 µM was in the range of 0 to 25%.

As to `C[C@H](C(N)=O)n1ccc2c(NC(=O)Cc3c(F)cccc3C(F)(F)F)cccc2c1=O` [Compound 286], the inhibition at 0.3 µM lay within 26 to 50%.

For `C[C@H](C(N)=O)n1ccc2c(NC(=O)Cc3cccc(OC(F)(F)F)c3)cccc2c1=O` [Compound 313], the inhibition at 0.3 µM was in the range of 0 to 25%.

In the case of `C[C@@H](CO)n1ccc2c(NC(=O)Cc3cccc(C(F)(F)F)c3F)cccc2c1=O` [Compound 325], the inhibition at 0.3 µM was > 76%.

In the case of `O=C(Cc1ccc(Cl)c(Cl)c1)Nc1cccc2c(=O)n(C[C@H]3CCCN3)ccc12` [Compound 245], the inhibition at 0.3 µM was > 76%.

As for `CC(C)(CO)n1ccc2c(NC(=O)Cc3ccc(C(F)(F)F)cc3C(F)(F)F)cccc2c1=O` [Compound 366], the inhibition at 0.3 µM fell in the range of 0 to 25%.

Turning to `C[C@H](C(N)=O)n1ccc2c(NC(=O)Cc3cccc(C#N)c3)cccc2c1=O` [Compound 288], the inhibition at 0.3 µM lay within 0 to 25%.

For the compound `CC(C(=O)Nc1cccc2c(=O)n([C@@H](C)C(N)=O)ccc12)c1ccc(Cl)cc1` (stereo partly drawn) [Compound 240], the inhibition at 0.3 µM is > 76%.

Regarding `O=C(Cc1ccc(Cl)c(C(F)(F)F)c1)Nc1cccc2c(=O)n(C[C@H]3CCCN3)ccc12` [Compound 243], the inhibition at 0.3 µM is > 76%.

The assay is the same for the next values; noted with them: THP-1 cells, BzATP 250 uM, IL-1β by ELISA.
Take `O=C(Nc1cccc2c(=O)n(CCO)ccc12)C1(c2ccc(Cl)cc2)CCCC1` [Compound 79]: the IC50 (usually the concentration needed to halve the response being measured) is > 1 µM.

`Cc1ccc2c(=O)n(CCO)ccc2c1NC(=O)Cc1cccc(C(F)(F)F)c1F` [Compound 396] gave an IC50 of 0.0107 µM.
